Each structure is given as a SMILES string.

In one test the test system is BRCA2 (−/−) DLD1 cells. The experiment in a line: PARP proliferation assay (4 day compound dosing), BRCA2 (−/−) DLD1. Conditions: Homo sapiens, 96 h, BRCA2 −/− DLD-1 cells, read-out: BRCA2 −/− DLD-1 prolif 4 d IC50. Type of test: cell-based.
The next test deals with DLD1 cells. The experiment in a line: PARP proliferation assay (4 day compound dosing), WT DLD1. Conditions: Homo sapiens, 96 h, WT DLD-1 cells, read-out: WT DLD-1 prolif 4 d IC50. Type of test: cell-based.

On to `CCc1cc2ncc(CN3CCN(c4ccc(C(=O)NC)nc4C)CC3)cc2[nH]c1=O` [Example 31, 5-[4-[(7-ethyl-6-oxo-5H-1,5-naphthyridin-3-yl)methyl]piperazin-1-yl]-N,6-dimethyl-pyridine-2-carboxamide], for which the IC50 in the test with BRCA2 (−/−) DLD1 cells was 4 nM; in the test on DLD1 cells, greater than 30000 nM.

For the origin of these results see patent publication US11325906B2, “Chemical compounds” (AstraZeneca AB, priority 2019, dated 2022).
